Source: PMC2225439, “Amyloid as a Depot for the Formulation of Long-Acting Drugs” (PLoS Biology, 2008)
*1 amine or outer side, *2 acyl side, *3 side chain or, on linkers, in order; H or OH if unused. Where a SMILES comes first, the peptide text is derived from it. Side-chain parts run from the residue outwards. [ ]: non-standard residue; d: D form. The star is where a group is joined. dPhe(4-NHCONH2) = NC(=O)Nc1ccc(C[C@@H](N)C(=O)O)cc1; Dihydroorotyl(S) = O=C1C[C@@H](C(=O)*)NC(=O)N1; dPhe(4-NH2) = Nc1ccc(C[C@@H](N)C(=O)O)cc1; dPhe(4-Cl) = N[C@H](Cc1ccc(Cl)cc1)C(=O)O; Phe(4-NH2) = Nc1ccc(C[C@H](N)C(=O)O)cc1; d2Nal = N[C@H](Cc1ccc2ccccc2c1)C(=O)O; Lys(iPr) = CC(C)NCCCC[C@H](N)C(=O)O; NHCH2CH2OCH2CH2OEt = CCOCCOCCN*; d3Pal = N[C@H](Cc1cccnc1)C(=O)O; Methoxycarbamoyl = CONC(=O)*; Nicotinoyl = O=C(c1cccnc1)*; PEG3 = NCCOCCOCCOCCC(=O)O; CO = O=C([*:1])[*:2]; Butyryl = CCCC(=O)*

What was measured:
[1] = Thio T binding (amyloid fibril formation); format: physicochemical; design: key to Thio T Binding: b, binding; n, not binding; settings: 1 mg/ml in 5% D-mannitol, 0.01% sodium azide, room temperature without stirring, monitored daily over 21 d; fluorescence ex 450 nm / em 482 nm; three independent experiments
Protocol: The kinetics of fibril formation in vitro is generally a slow process over several days or weeks, and can be monitored by the increase of fluorescence intensity of the cross-β-sheet–sensitive dye, Thio T [15]. Thio T fluorescence is thereby insignificant during the initial incubation period of amyloid aggregation due to the nonexistence of Thio T–sensitive β-sheet aggregates. After the initial phase, a time-dependent increase of fluorescence intensity is observed until a maximum intensity is reached, at which time maximal fibril formation has occurred. […] For the Thio T binding studies, all GnRH analogs were incubated at room temperature at a concentration of 1 mg/ml in 5% D-mannitol, conditions identical to the formulation used in the animal experiments. In addition, 0.01% sodium azide was added. The Thio T fluorescence was monitored daily for all analogs over a period of 21 d (Figure 1).
(§1) GnRH analogs were dissolved in a glass tube in 1 ml of 5% D-mannitol and 0.01% sodium azide at a concentration of 1 mg/ml. The GnRH analogs were then incubated at room temperature without stirring. The fibril formation was monitored by EM, CR, and time-resolved by Thio T binding studies. Three independent experiments were performed for each sample.
A 10-μl aliquot of peptide sample was diluted into 500 μl of water with 5% D-mannitol containing 0.01% (w/v) sodium azide. The solution was mixed with 10 μl of 1 mM Thio T prepared in the same solution. Fluorescence was measured immediately after addition of Thio T. The experiment was measured on a spectrofluorimeter (Photon Technology International) with excitation at 450 nm and emission at 482 nm. The fluorescence intensity at 482 nm was plotted against incubation time (day). A rectangular 10-mm quartz microcuvette was used. Three independent experiments were performed for each sample.

Congo red (CR) binding = format: physicochemical; design: key to Congo Red: b, binding; n, not binding; settings: analogs incubated for 30 d, 1 mg/ml in 5% D-mannitol, 0.01% sodium azide, room temperature; UV 300–700 nm and by eye; three independent experiments
Protocol: To confirm amyloid formation by GnRH analogs, CR binding was measured. CR, like Thio T, is a dye routinely used to detect β-sheet–rich assemblies. CR binding can be measured by the “red shift” change of its absorption maximum from 490 to 540 nm, by an increase of the dye's molar absorptivity, and in favorable cases by eye. All three types of measurements were performed with GnRH analogs incubated for 30 d. […] However, five short-acting GnRH analogs, i.e., S3, S4, S6, S10, and S11, bind CR, showing that some short-acting GnRH-analogs are able to form amyloids after prolonged incubation (see also below). In contrast to short-acting analogs, all long-acting analogs bind CR.
as §1
A 5-μl aliquot of peptide sample was mixed with 80 μl of PBS buffer containing 10% ethanol. Then 15 μl of a 100 μM CR solution (filtered through 0.2-μm filter) in PBS containing 10% ethanol was added. After mixing, UV was measured from 300–700 nm. For the measurement of the CR-only spectrum, 15 μl of CR solution with 85 μl of PBS containing 10% ethanol was prepared. As a control, a 5-μl aliquot of GnRH analog mixed with 95 μl of PBS containing 10% ethanol was measured. Three independent experiments were performed for each sample. In addition to the UV measurements, pictures of the cuvette containing the peptide sample and CR were taken to visually show the CR binding to the amyloids.

[2] = Electron microscopy of negative-stained samples; format: physicochemical; design: key to EM^8 / EM^30: fib, fibrils; nfib, no fibrils; settings: for EM^8: electron microscopy at day 8 of incubation; for EM^8 / EM^30: 1 mg/ml in 5% D-mannitol, room temperature, at least two independent experiments; for EM^30: electron microscopy at day 30 of incubation; for EM, formation of amyloid-like fibrils at day 30 (in words): 30 d of incubation
Protocol: To formally determine the formation of amyloid fibrils by GnRH analogs and to characterize other possible assemblies present in the sample, EM was done on all of the GnRH analogs. Since the EM analysis is for a qualitative interpretation only, amyloid fibrils and other small aggregates might be observed under the electron microscope even if only a minority of the sample forms fibrils. Samples were studied after 8 and 30 d of incubation. […] The fibrils show a wide variety of morphologies, comprising helical ultrastructures with varying degrees of lateral association. Furthermore, the fibrils are composed of one or more filaments, resulting in overall diameters ranging from approximately 6 to 12 nm. No oligomers are observed for the long-acting compounds at day 8 or at day 30 (Figures 2 and S2).
as §1
A 5-μl aliquot of peptide sample was diluted into 50 μl of water to a peptide concentration of approximately 50 μM, spotted on a glow-discharged, carbon-coated Formvar grid (Electron Microscopy Sciences), incubated for 5 min, washed with distilled water, and then stained with 1% (w/v) aqueous uranyl formate solution. Uranyl formate solutions were filtered through 0.2-μm sterile syringe filters (Corning) before use. EM analysis was performed using a JEOL JEM-100CXII electron microscope at 80 kV with nominal magnifications between 36,000 and 72,000. Images were recorded digitally by using the SIS Megaview III imaging system. At least two independent experiments were carried out for each sample.

[3] = Peptide release from amyloid (dialysis experiment); settings: 35 d; for t1/2: half-life of fibrils: time in which fluorescence inside drops by 50%, dialysis of 30-d-old analog, 3.5-kDa MWCO, 5% D-mannitol, room temperature, exponential fit, 2 d = intrinsic diffusion of monomer; for stability of fibrils from release profile (in words): dialysis of 30-d-old samples
Protocol: Although amyloid fibrils are very stable, they must follow thermodynamic equilibrium conditions between fibril and monomer. […] A total of 200 μl of 30-d-old GnRH analog (in) was dialyzed 4 ml of 5% D-mannitol (out). A 3.5-kDa cutoff, which is twice the size of the peptides studied, was chosen to ensure that the released particles are most likely monomeric. The peptide release and the remaining aggregates were monitored by fluorescence over 35 d at room temperature.
A 200-μl aliquot of aged GnRH in solution conditions given above was transferred into a 0.6-ml Eppendorf tube with a hole in the cap. To study the effect of heparin on peptide release, a mixture of hormone analog and heparin (1:1 v/v) was incubated overnight in parallel with a half-diluted peptide fibril sample in 5% D-mannitol and 0.01% sodium azide. The hole in the cap of the Eppendorf tube was sealed with a 3.5-kDa molecular weight cutoff (MWCO) membrane. Next, the Eppendorf tube was inserted upside down into a 15-ml Falcon tube containing 4 ml of 5% D-mannitol in water and 0.01% sodium azide. Care was taken to make sure that the membrane was exposed to solutions both in and outside and that any bubbles at the membrane interface were removed. The tubes were then incubated at room temperature. To measure the remaining peptide concentration inside the 0.6-ml Eppendorf tube, a 5-μl aliquot was diluted into 500 μl water with 5% D-mannitol, 0.01% sodium azide, and the fluorescence was measured with excitation at 280 nm and emission in the range of 290–500 nm. The excitation slit width was 2 nm, and emission slit width was 11 nm. To determine the peptide concentration outside the membrane in the 15-ml tube, an aliquot of 250 μl of solution was taken from the releasing medium, diluted into 500 μl final volume by 5% D-mannitol, 0.01% sodium azide, and fluorescence was measured. Following spectra recording, the dialysis system was reassembled as described above. […] The normalized intensity maxima from inside and outside the membrane were plotted as a function of time and fit by an exponential function to extract the half-life of the fibrils and the K off, respectively. […] The extracted half-life, t 1/2, is the time taken, during which the fluorescence signal inside the 0.6-ml Eppendorf tube drops by 50%.

Thio T Binding [1]	Congo Red (Congo red (CR) binding)	EM^8 [2]	EM^30 [2]	t1/2 [3] [h]	stability of fibrils from release profile (in words) [3]	Molecule	EM, formation of amyloid-like fibrils at day 8 (in words) ([2]; 8 d of incubation)	EM, formation of amyloid-like fibrils at day 30 (in words) [2]
n	n	nfib	nfib	48		Ac-DNal-DCpa-DPal-Ser-Arg-DGlu(AA)-Leu-Arg-Pro-DAla-NH2 [S7, reference compound]		do not form any detectable amyloid-like fibrils
					form unstable fibrils	CC(=O)N[C@H](Cc1ccc2ccccc2c1)C(=O)N[C@H](Cc1ccc(Cl)cc1)C(=O)N[C@H](Cc1cccnc1)C(=O)N[C@@H](CO)C(=O)N[C@@H](CCCCNC(=O)c1cccnc1)C(=O)N[C@H](CCCCNC(=O)c1cccnc1)C(=O)N[C@@H](CC(C)C)C(=O)N[C@@H](CCCCNC(C)C)C(=O)N1CCC[C@H]1C(=O)N[C@H](C)C(N)=O [S6, Ac-DNal-DCpa-DPal-Ser-Lys(Nic)-DLys(Nic)-Leu-ILys-Pro-DAla-NH2, reference compound] (Ac-[d2Nal][dPhe(4-Cl)][d3Pal]SK(Nicotinoyl)[dK](Nicotinoyl)L[Lys(iPr)]P[dA]-NH2)		
b	b	fib	fib			Ac-DNal-DCpa-DPal-Ser-Aph(Atz)-DAph(Atz)-Leu-ILys-Pro-DAla-NH2 [L19, reference compound]		
					form unstable fibrils	CCOCCOCCNC(=O)Nc1ccc(C[C@@H](NC(=O)[C@H](Cc2ccc(NC(=O)[C@@H]3CC(=O)NC(=O)N3)cc2)NC(=O)[C@H](CO)NC(=O)[C@@H](Cc2cccnc2)NC(=O)[C@@H](Cc2ccc(Cl)cc2)NC(=O)[C@@H](Cc2ccc3ccccc3c2)NC(C)=O)C(=O)N[C@@H](CC(C)C)C(=O)N[C@@H](CCCCNC(C)C)C(=O)N2CCC[C@H]2C(=O)N[C@H](C)C(N)=O)cc1 [S11, [DAph(CONH(C2H4O)2-C2H5]degarelix] (Ac-[d2Nal][dPhe(4-Cl)][d3Pal]S[Phe(4-NH2)](Dihydroorotyl(S))[dPhe(4-NH2)]([CO-NHCH2CH2OCH2CH2OEt])L[Lys(iPr)]P[dA]-NH2)		
n	n	nfib	nfib	48		Ac-D3-Pro-DFpa-DTrp-Ser-Tyr-DTrp-Leu-Arg-Pro-Gly-NH2 [S5, reference compound]		do not form any detectable amyloid-like fibrils
					form unstable fibrils	CONC(=O)NCCOCCOCCOCCC(=O)Nc1ccc(C[C@H](NC(=O)[C@H](CO)NC(=O)[C@@H](Cc2cccnc2)NC(=O)[C@@H](Cc2ccc(Cl)cc2)NC(=O)[C@@H](Cc2ccc3ccccc3c2)NC(C)=O)C(=O)N[C@H](Cc2ccc(NC(N)=O)cc2)C(=O)N[C@@H](CC(C)C)C(=O)N[C@@H](CCCCNC(C)C)C(=O)N2CCC[C@H]2C(=O)N[C@H](C)C(N)=O)cc1 [S2, [Aph(CO-(C2H4O)3-C2H4-NH-CO-NH-OCH3)^5]degarelix] (Ac-[d2Nal][dPhe(4-Cl)][d3Pal]S[Phe(4-NH2)]([PEG3-Methoxycarbamoyl])[dPhe(4-NHCONH2)]L[Lys(iPr)]P[dA]-NH2)		

Molecule	Thio T Binding [1]	Congo Red (Congo red (CR) binding)	EM^8 [2]	EM^30 [2]	t1/2 [3] [h]	stability of fibrils from release profile (in words) [3]	EM, formation of amyloid-like fibrils at day 8 (in words) ([2]; 8 d of incubation)	EM, formation of amyloid-like fibrils at day 30 (in words) [2]
des-Ac-[Aph(CO-NH-OCH3)^5]-CH3-(CH2)2-CO-degarelix [L16]	b	b	fib	fib			Short worm-like protofibrils	
CCOCCOCCNC(=O)N[C@H](Cc1ccc2ccccc2c1)C(=O)N[C@H](Cc1ccc(Cl)cc1)C(=O)N[C@H](Cc1cccnc1)C(=O)N[C@@H](CO)C(=O)N[C@@H](Cc1ccc(NC(=O)[C@@H]2CC(=O)NC(=O)N2)cc1)C(=O)N[C@H](Cc1ccc(NC(=O)NOC)cc1)C(=O)N[C@@H](CC(C)C)C(=O)N[C@@H](CCCCNC(C)C)C(=O)N1CCC[C@H]1C(=O)N[C@H](C)C(N)=O [S3, des-Ac-[D-Aph(CO-NH-OCH3)^6]-C2H5-(C2H4O)2-NH-CO-degarelix] ({NHCH2CH2OCH2CH2OEt-CO}-[d2Nal][dPhe(4-Cl)][d3Pal]S[Phe(4-NH2)](Dihydroorotyl(S))[dPhe(4-NH2)](Methoxycarbamoyl)L[Lys(iPr)]P[dA]-NH2)						form very stable amyloids with very little peptide release		
CCCC(=O)N[C@H](Cc1ccc2ccccc2c1)C(=O)N[C@H](Cc1ccc(Cl)cc1)C(=O)N[C@H](Cc1cccnc1)C(=O)N[C@@H](CO)C(=O)N[C@@H](Cc1ccc(NC(=O)NOC)cc1)C(=O)N[C@H](Cc1ccc(NC(=O)NOC)cc1)C(=O)N[C@@H](CC(C)C)C(=O)N[C@@H](CCCCNC(C)C)C(=O)N1CCC[C@H]1C(=O)N[C@H](C)C(N)=O [S4, des-Ac-[Aph(CO-NH-OCH3)^5,D-Aph(CO-NH-OCH3)^6]-CH3-(CH2)2-CO-degarelix] (Butyryl-[d2Nal][dPhe(4-Cl)][d3Pal]S[Phe(4-NH2)](Methoxycarbamoyl)[dPhe(4-NH2)](Methoxycarbamoyl)L[Lys(iPr)]P[dA]-NH2)						form very stable amyloids with very little peptide release		
